According to patent US20230321055A1, “PREVENTIVE TREATMENT OF MIGRAINE” (priority 2022, published 2023):

Test system: participants with chronic migraine
Assay: Same phase 3 study: safety and tolerability (adverse events, hepatic laboratory values), safety population
Assay type: in vivo, human
Protocol: A phase 3, multicenter, randomized, double-blind, placebo-controlled, parallel-group study was carried out to evaluate the efficacy, safety, and tolerability of atogepant for the prevention of chronic migraine. A total of 778 participants from 133 sites in North America, Europe, and East Asia were randomized to one of three treatment arms (placebo, Atogepant 30 mg BID, and Atogepant 60 mg QD) in a 1:1:1 ratio.
This study comprised a 4-week screening and baseline period, a 12-week double blind treatment period, and a follow-up period of 4 additional weeks. The total study duration was 20 weeks. Participant disposition information and other relevant participant screening information may also be found in FIG. 19.
The overall safety profile of the study was consistent with safety findings observed in previous studies of atogepant in an episodic migraine population. […] For the safety population, the mean treatment duration for atogepant 30 mg BID, atogepant 60 mg QD, and placebo group were 80.1 days, 79.7 days, and 80.3 days, respectively. Serious adverse events occurred in 2.7% of patients treated with atogepant 60 mg QD and 1.6% of patients treated with atogepant 30 mg BID, compared to 1.2% of patients with placebo.
Table 11 presents the number and percentage of participants with post-baseline hepatic-related laboratory parameter values of clinical interest. There were five participants who had post-baseline ALT or AST elevations (≥3*ULN), with 1/254 (0.4%), 2/255 (0.8%), and 2/257 (0.8%) in the placebo, atogepant 30 mg BID, and atogepant 60 mg QD groups, respectively. All cases in the atogepant dose groups were adjudicated as unlikely to be related to study drug. No participants met potential Hy's law criteria.

[1] = 30 mg BID, safety population (N = 257)
[2] = 60 mg QD, safety population (N = 261)

In the case of `C[C@@H]1[C@H](c2c(F)ccc(F)c2F)C[C@H](NC(=O)c2cnc3c(c2)C[C@@]2(C3)C(=O)Nc3ncccc32)C(=O)N1CC(F)(F)F` [Atogepant, (S)—N—((3S,5S,6R)-6-methyl-2-oxo-1-(2,2,2-trifluoroethyl)-5-(2,3,6-trifluorophenyl)piperidin-3-yl)-2′-oxo-1′,2′,5,7-tetrahydrospiro[cyclopenta[b]pyridine-6,3′-pyrrolo[2,3-b]pyridine]-3-carboxamide], the Deaths [1] is reported as 0 n (%), the “TEAE leading to treatment discontinuation” value [1] is reported as 13 (5.1) n (%) and the “TEAEs, participants” value [1] is reported as 145 (56.4) n (%). For the same compound, the “TESAE Anal abscess” value [1] was 1 (0.4) n (%), the “TESAE Benign ovarian tumour” value [1] was 1 (0.4) n (%) and the “TESAE COVID-19” value [1] was 0 n (%). The “TESAE COVID-19 pneumonia” value [1] was 1 (0.4) n (%), the “TESAE Cholelithiasis” value [1] was 0 n (%) and the “TESAE Epicondylitis” value [1] was 0 n (%). For the same compound, the “TESAE Fall” value [1] was 0 n (%), the “TESAE Hip fracture” value [1] was 0 n (%) and the “TESAE Nasal septum deviation” value [1] was 0 n (%). The “TESAE Plasma cell myeloma” value [1] was 0 n (%), the Deaths [2] was 0 n (%) and the “TESAE COVID-19” value [2] was 1 (0.4) n (%). The “TESAE COVID-19 pneumonia” value [2] was 0 n (%) and the “serious adverse events considered related to study treatment by the investigator” value (in vivo) was “None”.
